From US11739098B2 (BRISTOL-MYERS SQUIBB COMPANY, priority 2017, dated 2023)

Assays:
Assay type in all cases: cell-based
human TLR9 = target: T1, human TLR9 (Homo sapiens, UniProt Q9NR96); assay: TLR9 inhibition reporter assay (HEK-Blue cells, SEAP reporter, ODN2006 stimulation); details: HEK-Blue cells overexpressing human TLR9, SEAP reporter, ODN2006 5 nM
T1 construct: host or cells: HEK-Blue cells (HEK293-derived reporter line)
T1 sequence (Q9NR96 26-1032): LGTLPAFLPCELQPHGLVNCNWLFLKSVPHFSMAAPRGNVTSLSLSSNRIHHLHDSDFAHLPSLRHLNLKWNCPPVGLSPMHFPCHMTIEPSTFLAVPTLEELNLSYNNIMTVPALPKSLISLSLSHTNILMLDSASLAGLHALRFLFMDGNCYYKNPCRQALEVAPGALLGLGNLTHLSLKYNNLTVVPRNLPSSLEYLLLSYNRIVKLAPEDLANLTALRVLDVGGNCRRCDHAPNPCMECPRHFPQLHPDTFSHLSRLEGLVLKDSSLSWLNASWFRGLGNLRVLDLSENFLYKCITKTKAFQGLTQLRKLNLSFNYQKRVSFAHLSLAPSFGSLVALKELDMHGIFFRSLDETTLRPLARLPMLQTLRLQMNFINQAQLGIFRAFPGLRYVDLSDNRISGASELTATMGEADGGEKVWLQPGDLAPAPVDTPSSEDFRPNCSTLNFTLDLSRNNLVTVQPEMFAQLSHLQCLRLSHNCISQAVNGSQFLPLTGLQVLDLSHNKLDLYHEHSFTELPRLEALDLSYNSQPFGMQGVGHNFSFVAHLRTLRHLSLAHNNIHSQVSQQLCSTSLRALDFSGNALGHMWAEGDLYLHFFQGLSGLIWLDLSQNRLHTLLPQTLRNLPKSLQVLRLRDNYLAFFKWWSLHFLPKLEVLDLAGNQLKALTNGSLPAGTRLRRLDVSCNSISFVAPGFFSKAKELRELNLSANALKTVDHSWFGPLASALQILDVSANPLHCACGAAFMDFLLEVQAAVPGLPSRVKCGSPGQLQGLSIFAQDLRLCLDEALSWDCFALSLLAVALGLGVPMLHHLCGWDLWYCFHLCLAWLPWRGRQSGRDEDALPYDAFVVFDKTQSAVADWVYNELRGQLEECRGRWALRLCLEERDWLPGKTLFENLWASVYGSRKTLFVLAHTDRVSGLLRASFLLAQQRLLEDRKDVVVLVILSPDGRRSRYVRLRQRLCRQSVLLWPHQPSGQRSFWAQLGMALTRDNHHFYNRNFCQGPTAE
Method in brief: (§1)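 HEK-Blue cells overexpressing the receptor, with NF-κB/AP-1-driven SEAP, were pre-treated 30 min at room temperature with compound (0.05 nM–50 μM), then stimulated with gardiquimod 7.5 μM (TLR7), R848 15.9 μM (TLR8) or ODN2006 5 nM (TLR9). SEAP was read after 22 h at 37 °C as percent inhibition.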

human TLR7 = target: T2, human TLR7 (Homo sapiens, UniProt Q9NYK1); assay: TLR7 inhibition reporter assay (HEK-Blue cells, SEAP reporter, gardiquimod stimulation); details: HEK-Blue cells overexpressing human TLR7, SEAP reporter, gardiquimod 7.5 μM
T2 construct: host or cells: HEK-Blue cells (HEK293-derived reporter line)
T2 sequence (Q9NYK1 27-1049): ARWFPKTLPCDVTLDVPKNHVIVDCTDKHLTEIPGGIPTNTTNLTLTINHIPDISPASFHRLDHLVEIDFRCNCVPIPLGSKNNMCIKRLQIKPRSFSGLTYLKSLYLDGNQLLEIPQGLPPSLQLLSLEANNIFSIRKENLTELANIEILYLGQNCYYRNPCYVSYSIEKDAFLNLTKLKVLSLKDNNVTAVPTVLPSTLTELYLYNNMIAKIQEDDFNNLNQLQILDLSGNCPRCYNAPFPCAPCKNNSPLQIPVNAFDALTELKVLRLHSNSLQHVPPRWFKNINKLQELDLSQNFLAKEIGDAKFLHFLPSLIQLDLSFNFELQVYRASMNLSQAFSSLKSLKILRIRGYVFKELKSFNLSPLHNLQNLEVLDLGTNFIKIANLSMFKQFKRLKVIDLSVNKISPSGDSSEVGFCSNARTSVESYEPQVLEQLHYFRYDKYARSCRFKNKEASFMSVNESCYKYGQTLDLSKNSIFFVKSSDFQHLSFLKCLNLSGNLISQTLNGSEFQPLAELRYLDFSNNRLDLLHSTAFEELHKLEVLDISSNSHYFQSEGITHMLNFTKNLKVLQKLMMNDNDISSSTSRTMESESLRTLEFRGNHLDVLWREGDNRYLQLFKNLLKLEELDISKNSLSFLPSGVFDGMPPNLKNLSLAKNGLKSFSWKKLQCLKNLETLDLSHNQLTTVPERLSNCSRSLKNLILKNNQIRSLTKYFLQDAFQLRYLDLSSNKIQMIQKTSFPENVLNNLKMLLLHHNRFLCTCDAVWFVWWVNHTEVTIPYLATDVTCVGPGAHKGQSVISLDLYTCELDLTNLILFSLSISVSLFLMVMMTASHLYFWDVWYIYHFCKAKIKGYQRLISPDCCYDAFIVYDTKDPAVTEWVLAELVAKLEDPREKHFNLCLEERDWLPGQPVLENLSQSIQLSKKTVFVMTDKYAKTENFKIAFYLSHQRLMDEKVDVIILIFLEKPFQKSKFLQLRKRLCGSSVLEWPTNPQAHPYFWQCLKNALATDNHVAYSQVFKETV
Method in brief: as §1

human TLR8 = target: T3, human TLR8 (Homo sapiens, UniProt Q9NR97); assay: TLR8 inhibition reporter assay (HEK-Blue cells, SEAP reporter, R848 stimulation); details: HEK-Blue cells overexpressing human TLR8, SEAP reporter, R848 15.9 μM
T3 construct: host or cells: HEK-Blue cells (HEK293-derived reporter line)
T3 sequence (Q9NR97 27-1041): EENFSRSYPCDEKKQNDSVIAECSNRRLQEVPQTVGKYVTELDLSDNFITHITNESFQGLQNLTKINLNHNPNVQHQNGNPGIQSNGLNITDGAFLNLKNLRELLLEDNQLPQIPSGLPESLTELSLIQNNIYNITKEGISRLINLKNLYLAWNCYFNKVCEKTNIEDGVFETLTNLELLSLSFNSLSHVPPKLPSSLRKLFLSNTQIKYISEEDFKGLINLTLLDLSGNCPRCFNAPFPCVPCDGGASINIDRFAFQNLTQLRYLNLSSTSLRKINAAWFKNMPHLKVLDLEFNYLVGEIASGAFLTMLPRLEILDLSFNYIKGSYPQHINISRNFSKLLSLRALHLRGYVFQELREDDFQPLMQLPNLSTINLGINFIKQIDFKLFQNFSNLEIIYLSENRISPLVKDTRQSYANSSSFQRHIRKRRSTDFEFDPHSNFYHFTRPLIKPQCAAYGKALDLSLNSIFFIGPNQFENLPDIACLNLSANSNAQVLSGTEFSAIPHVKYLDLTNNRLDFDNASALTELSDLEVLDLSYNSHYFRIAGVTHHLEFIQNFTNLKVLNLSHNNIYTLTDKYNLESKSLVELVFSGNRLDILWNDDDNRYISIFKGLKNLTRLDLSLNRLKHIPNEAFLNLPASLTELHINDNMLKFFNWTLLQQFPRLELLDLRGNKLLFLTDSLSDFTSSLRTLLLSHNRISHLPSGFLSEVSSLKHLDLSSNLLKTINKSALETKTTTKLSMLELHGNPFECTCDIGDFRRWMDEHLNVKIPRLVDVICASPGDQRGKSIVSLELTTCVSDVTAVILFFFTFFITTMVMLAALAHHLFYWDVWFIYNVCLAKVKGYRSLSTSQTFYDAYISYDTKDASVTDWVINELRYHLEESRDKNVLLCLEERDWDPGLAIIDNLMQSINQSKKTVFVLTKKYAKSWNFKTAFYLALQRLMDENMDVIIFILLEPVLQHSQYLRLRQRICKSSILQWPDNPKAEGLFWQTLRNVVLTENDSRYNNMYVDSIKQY
Method in brief: as §1

SMILES: Cc1cc(-c2[nH]c3ccc(C4CCN(CC(=O)N(C)C)CC4)cc3c2C(C)C)cn2c(C#N)cnc12 [Example 430, 2-(4-(2-(3-cyano-8-methylimidazo [1,2-a]pyridin-6-yl)-3-isopropyl-1H-indol-5-yl)piperidin-1-yl)-N,N-dimethylacetamide]
- IC50 (human TLR9): 1000 to 50000 nM
- IC50 (human TLR7): 100 to 1000 nM
- IC50 (human TLR8): < 100 nM

SMILES: CC(C)c1c(-c2cc(C(C)(C)O)c3nccn3c2)[nH]c2ccc(C3CCNCC3)cc12 [Example 134, 2-(6-(3-isopropyl-5-(piperidin-4-yl)-1H-indol-2-yl)imidazo[1,2-a]pyridin-8-yl)propan-2-ol]
- IC50 (human TLR9): 100 to 1000 nM
- IC50 (human TLR7): < 100 nM
- IC50 (human TLR8): 100 to 1000 nM

SMILES: CNCC(=O)N1CCC(c2ccc3[nH]c(-c4cc(C)c5nccn5c4)c(C(C)C)c3c2)CC1 [Example 557, 1-(4-(3-isopropyl-2-(8-methylimidazo[1,2-a]pyridin-6-yl)-1H-indol-5-yl)piperidin-1-yl)-2-(methylamino)ethan-1-one]
- IC50 (human TLR9): 100 to 1000 nM
- IC50 (human TLR7): < 100 nM
- IC50 (human TLR8): < 100 nM

SMILES: CCc1c(-c2ccnc3[nH]cc(Cl)c23)[nH]c2ccc(C3CCN(C4CCN(C(C)C)CC4)CC3)cc12 [Example 842, 3-chloro-4-(3-ethyl-5-(1′-isopropyl-[1,4′-bipiperidin]-4-yl)-1H-indol-2-yl)-1H-pyrrolo[2,3-b]pyridine]
- IC50 (human TLR9): 100 to 1000 nM
- IC50 (human TLR7): 100 to 1000 nM
- IC50 (human TLR8): < 100 nM

SMILES: CCc1c(-c2ccnc3[nH]ncc23)[nH]c2ccc(C3CCN(C(=O)C4CCN(C)CC4)CC3)cc12 [Example 648, (4-(3-ethyl-2-(1H-pyrazolo[3,4-b]pyridin-4-yl)-1H-indol-5-yl)piperidin-1-yl)(1-methylpiperidin-4-yl)methanone]
- IC50 (human TLR9): 1000 to 50000 nM
- IC50 (human TLR7): < 100 nM
- IC50 (human TLR8): < 100 nM

SMILES: CC(C)c1c(-c2ccc3nccn3c2)[nH]c2ccc(C3CCNCC3)c(F)c12 [Example 258, 6-(4-fluoro-3-isopropyl-5-(piperidin-4-yl)-1H-indol-2-yl)imidazo[1,2-a]pyridine]
- IC50 (human TLR9): 100 to 1000 nM
- IC50 (human TLR7): < 100 nM
- IC50 (human TLR8): < 100 nM

SMILES: CCc1c(-c2ccnc3[nH]ncc23)[nH]c2ccc(C3CCN(Cc4cc(-c5ccccc5)on4)CC3)cc12 [Example 897, 3-((4-(3-ethyl-2-(1H-pyrazolo[3,4-b]pyridin-4-yl)-1H-indol-5-yl)piperidin-1-yl)methyl)-5-phenylisoxazole]
- IC50 (human TLR9): 1000 to 50000 nM
- IC50 (human TLR7): 1000 to 50000 nM
- IC50 (human TLR8): 100 to 1000 nM

SMILES: Cc1cc(-c2[nH]c3ccc(C4CCN(Cc5ncn(C)n5)CC4)cc3c2C(C)C)cn2nncc12 [Example 881, 6-(3-isopropyl-5-(1-((1-methyl-1H-1,2,4-triazol-3-yl)methyl)piperidin-4-yl)-1H-indol-2-yl)-4-methyl-[1,2,3]triazolo[1,5-a]pyridine]
- IC50 (human TLR9): 1000 to 50000 nM
- IC50 (human TLR7): 1000 to 50000 nM
- IC50 (human TLR8): 100 to 1000 nM

SMILES: Cc1c(-c2ncc3cc[nH]c3n2)[nH]c2ccc(C3CCN(C4CCN(C(C)C)CC4)CC3)cc12 [Example 809, 2-(5-(1′-isopropyl-[1,4′-bipiperidin]-4-yl)-3-methyl-1H-indol-2-yl)-7H-pyrrolo[2,3-d]pyrimidine]
- IC50 (human TLR9): 100 to 1000 nM
- IC50 (human TLR7): 1000 to 50000 nM
- IC50 (human TLR8): 1000 to 50000 nM

SMILES: CC(C)c1c(-c2ccnc3[nH]ncc23)[nH]c2ccc(C3CCN(C(=O)CN4CC[C@@H](O)C4)CC3)cc12 [Example 579, (R)-2-(3-hydroxypyrrolidin-1-yl)-1-(4-(3-isopropyl-2-(1H-pyrazolo[3,4-b]pyridin-4-yl)-1H-indol-5-yl)piperidin-1-yl)ethan-1-one]
- IC50 (human TLR9): 100 to 1000 nM
- IC50 (human TLR7): < 100 nM
- IC50 (human TLR8): < 100 nM

SMILES: CC(C)c1c(-c2ccc3ncsc3n2)[nH]c2ccc(C3CCNCC3)cc12 [Example 209, 5-(3-isopropyl-5-(piperidin-4-yl)-1H-indol-2-yl) thiazolo[5,4-b]pyridine]
- IC50 (human TLR9): 1000 to 50000 nM
- IC50 (human TLR7): < 100 nM
- IC50 (human TLR8): < 100 nM

SMILES: CC(C)c1c(-c2cc(F)c3nccn3c2)[nH]c2ccc(C3CCN(C(=O)CN(C)C)CC3)cc12 [Example 544, 2-(dimethylamino)-1-(4-(2-(8-fluoroimidazo[1,2-a]pyridin-6-yl)-3-isopropyl-1H-indol-5-yl)piperidin-1-yl)ethan-1-one]
- IC50 (human TLR9): 1000 to 50000 nM
- IC50 (human TLR7): < 100 nM
- IC50 (human TLR8): < 100 nM

SMILES: CNC(=O)CN1CCC(c2ccc3[nH]c(-c4cn5cc(C)nc5cc4C)c(C(C)C)c3c2)CC1 [Example 374, 2-(4-(2-(2,7-dimethylimidazo[1,2-a]pyridin-6-yl)-3-isopropyl-1H-indol-5-yl)piperidin-1-yl)-N-methylacetamide]
- IC50 (human TLR9): 100 to 1000 nM
- IC50 (human TLR7): < 100 nM
- IC50 (human TLR8): 100 to 1000 nM

SMILES: CC(C)c1c(-c2ccnc3[nH]ncc23)[nH]c2cc(F)c(C3CCN(CC4CCNC4)CC3)cc12 (stereo not drawn) [Example 853, 4-(6-fluoro-3-isopropyl-5-(1-(pyrrolidin-3-ylmethyl)piperidin-4-yl)-1H-indol-2-yl)-1H-pyrazolo[3,4-b]pyridine]
- IC50 (human TLR9): < 100 nM
- IC50 (human TLR7): < 100 nM
- IC50 (human TLR8): < 100 nM
